Molecular target: T1, Human KLK1 (Homo sapiens, UniProt P06870)
T1 construct: purchased Callbiochem (Calbiochem)
Experiment: Determination of the IC50 for KLK1 (fluorogenic substrate H-DVal-Leu-Arg-AFC)
Format: biochemical
Conditions: 37° C.
Summary of the method: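 Human KLK1 incubated at 37 °C with fluorogenic substrate H-DVal-Leu-Arg-AFC and a range of test compound concentrations. Residual activity was taken as initial reaction rate from absorbance change at 410 nm, and the IC50 derived from it.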

T1 sequence (P06870 25-262): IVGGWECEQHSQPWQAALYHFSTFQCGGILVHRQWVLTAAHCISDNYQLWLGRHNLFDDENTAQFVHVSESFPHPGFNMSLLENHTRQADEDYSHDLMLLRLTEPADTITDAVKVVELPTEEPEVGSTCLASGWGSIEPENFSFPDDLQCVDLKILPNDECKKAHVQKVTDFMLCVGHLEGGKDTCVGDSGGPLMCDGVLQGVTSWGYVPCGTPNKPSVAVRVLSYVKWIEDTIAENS

Compound | IC50 [nM]
CCC(C)[C@@H](NC)C(=O)N[C@H](Cc1ccc(Cl)c(Cl)c1)C(=O)NCc1ccc(N)nc1C (stereo partly drawn) [Example 188, (2R)-3-Methyl-2-methylamino-pentanoic acid [(R)-1-[(6-amino-2-methyl-pyridin-3-ylmethyl)-carbamoyl]-2-(3,4-dichloro-phenyl)-ethyl]-amide] | 1.2
Cc1nc(N)ccc1CNC(=O)[C@@H](Cc1ccc(Cl)c(Cl)c1)NC(=O)[C@H]1CCCN1 [Example 189, (R)-Pyrrolidine-2-carboxylic acid [(R)-1-[(6-amino-2-methyl-pyridin-3-ylmethyl)-carbamoyl]-2-(3,4-dichloro-phenyl)-ethyl]-amide] | 4.2
Cc1nc(N)ccc1CNC(=O)[C@@H](Cc1ccc(Cl)c(Cl)c1)NC(=O)[C@H]1CCCN1C [Example 190, (R)-1-Methyl-pyrrolidine-2-carboxylic acid [(R)-1-[(6-amino-2-methyl-pyridin-3-ylmethyl)-carbamoyl]-2-(3,4-dichloro-phenyl)-ethyl]-amide] | 1.8
Cc1nc(N)ccc1CNC(=O)[C@@H](Cc1ccc(Cl)c(Cl)c1)NC(=O)[C@H]1CSCN1 [Example 191, (S)-Thiazolidine-4-carboxylic acid [(R)-1-[(6-amino-2-methyl-pyridin-3-ylmethyl)-carbamoyl]-2-(3,4-dichloro-phenyl)-ethyl]-amide] | 33.3
Cc1nc(N)ccc1CNC(=O)[C@H](Cc1ccc(Cl)c(Cl)c1)NC(=O)[C@H]1CC(F)(F)CN1 [Example 192, (R)-4,4-Difluoro-pyrrolidine-2-carboxylic acid [(S)-1-[(6-amino-2-methyl-pyridin-3-ylmethyl)-carbamoyl]-2-(3,4-dichloro-phenyl)-ethyl]-amide] | 60.4
CN[C@@H](Cc1ccccc1)C(=O)N[C@H](Cc1ccc(Cl)c(Cl)c1)C(=O)NCc1ccc(N)nc1C [Example 193, (S)—N-[(R)-1-[(6-Amino-2-methyl-pyridin-3-ylmethyl)-carbamoyl]-2-(3,4-dichloro-phenyl)-ethyl]-2-methylamino-3-phenyl-propionamide] | 10.9
Cc1nc(N)ccc1CNC(=O)[C@H](Cc1ccc(Cl)c(Cl)c1)NC(=O)[C@H](N)Cc1ccc(F)cc1 [Example 194, (R)-2-Amino-N-[(S)-1-[(6-amino-2-methyl-pyridin-3-ylmethyl)-carbamoyl]-2-(3,4-dichloro-phenyl)-ethyl]-3-(4-fluoro-phenyl)-propionamide] | 5.1
Cc1nc(N)ccc1CNC(=O)[C@H](Cc1ccc(Cl)c(Cl)c1)NC(=O)[C@H](N)Cc1ccc(Cl)cc1 [Example 195, (R)-2-Amino-N-[(S)-1-[(6-amino-2-methyl-pyridin-3-ylmethyl)-carbamoyl]-2-(3,4-dichloro-phenyl)-ethyl]-3-(4-chloro-phenyl)-propionamide] | 5.4
Cc1nc(N)ccc1CNC(=O)[C@H](Cc1ccc(Cl)c(Cl)c1)NC(=O)[C@H](N)Cc1cccnc1 [Example 196, (R)-2-Amino-N-[(S)-1-[(6-amino-2-methyl-pyridin-3-ylmethyl)-carbamoyl]-2-(3,4-dichloro-phenyl)-ethyl]-3-pyridin-3-yl-propionamide] | 23.2
Cc1nc(N)ccc1CNC(=O)[C@@H](Cc1ccc(Cl)c(Cl)c1)NC(=O)[C@@H](N)c1ccccc1 [Example 197, (R)—N-(6-Amino-2-methyl-pyridin-3-ylmethyl)-2-((S)-2-amino-2-phenyl-acetylamino)-3-(3,4-dichloro-phenyl)-propionamide] | 84.6
Cc1nc(N)ccc1CNC(=O)[C@H](Cc1ccc(Cl)c(Cl)c1)NC(=O)[C@H](N)C1CCCCC1 [Example 198, (S)-2-((R)-2-Amino-2-cyclohexyl-acetylamino)-N-(6-amino-2-methyl-pyridin-3-ylmethyl)-3-(3,4-dichloro-phenyl)-propionamide] | 28
Cc1nc(N)ccc1CNC(=O)[C@H](Cc1ccc(Cl)c(Cl)c1)NC(=O)[C@H](N)C(C)(C)C [Example 199, (R)-2-Amino-N-[(S)-1-[(6-amino-2-methyl-pyridin-3-ylmethyl)-carbamoyl]-2-(3,4-dichloro-phenyl)-ethyl]-3,3-dimethyl-butyramide] | 1.4
Cc1nc(N)ccc1CNC(=O)[C@H](Cc1ccc(Cl)c(Cl)c1)NC(=O)[C@H](N)CC1CCCCC1 [Example 200, (R)-2-Amino-N-[(S)-1-[(6-amino-2-methyl-pyridin-3-ylmethyl)-carbamoyl]-2-(3,4-dichloro-phenyl)-ethyl]-3-cyclohexyl-propionamide] | 22.1
Cc1nc(N)ccc1CNC(=O)[C@H](Cc1ccc(Cl)c(Cl)c1)NC(=O)[C@H]1CCCCN1 [Example 201, (R)-Piperidine-2-carboxylic acid [(S)-1-[(6-amino-2-methyl-pyridin-3-ylmethyl)-carbamoyl]-2-(3,4-dichloro-phenyl)-ethyl]-amide] | 1.3
Cc1nc(N)ccc1CNC(=O)[C@H](Cc1ccc(Cl)c(Cl)c1)NC(=O)[C@H]1CCc2ccccc2N1 [Example 202, (R)-1,2,3,4-Tetrahydro-quinoline-2-carboxylic acid [(S)-1-[(6-amino-2-methyl-pyridin-3-ylmethyl)-carbamoyl]-2-(3,4-dichloro-phenyl)-ethyl]-amide] | 22.5
CCC(C)[C@@H](NC)C(=O)N[C@@H](Cc1cccc2ccccc12)C(=O)NCc1ccc(N)nc1C (stereo partly drawn) [Example 203, (R)-3-Methyl-2-methylamino-pentanoic acid {(S)-1-[(6-amino-2-methyl-pyridin-3-ylmethyl)-carbamoyl]-2-naphthalen-1-yl-ethyl}-amide] | 4.5
Cc1nc(N)ccc1CNC(=O)[C@H](Cc1ccc(F)cc1)NC(=O)[C@H]1CCCN1C [Example 204, (R)-1-Methyl-pyrrolidine-2-carboxylic acid [(S)-1-[(6-amino-2-methyl-pyridin-3-ylmethyl)-carbamoyl]-2-(4-fluoro-phenyl)-ethyl]-amide] | 5.9
Cc1nc(N)ccc1CNC(=O)[C@H](Cc1ccc(F)c(F)c1)NC(=O)[C@H]1CCCN1C [Example 205, (R)-1-Methyl-pyrrolidine-2-carboxylic acid [(S)-1-[(6-amino-2-methyl-pyridin-3-ylmethyl)-carbamoyl]-2-(3,4-difluoro-phenyl)-ethyl]-amide] | 6.7
CCC(C)[C@@H](N)C(=O)N[C@@H](CC1CCCC2CCCCC21)C(=O)NCc1c(C)cc(N)nc1C (stereo partly drawn) [Example 208, (R)-2-Amino-3-methyl-pentanoic acid [(S)-1-[(6-amino-2,4-dimethyl-pyridin-3-ylmethyl)-carbamoyl]-2-(decahydro-naphthalen-1-yl)-ethyl]-amide] | 32.1
CCC(C)[C@@H](N)C(=O)N[C@@H](Cc1cccc2ccccc12)C(=O)NCc1cnc(N)c(C)c1 (stereo partly drawn) [Example 209, (R)-2-Amino-3-methyl-pentanoic acid {(S)-1-[(6-amino-5-methyl-pyridin-3-ylmethyl)-carbamoyl]-2-naphthalen-1-yl-ethyl}-amide] | 36
CS(=O)(=O)N1CCC[C@@H]1C(=O)N[C@@H](Cc1ccc(Cl)c(Cl)c1)C(=O)NCc1ccc(N)nc1 [Example 210, (R)-1-Methanesulfonyl-pyrrolidine-2-carboxylic acid [(S)-1-[(6-amino-pyridin-3-ylmethyl)-carbamoyl]-2-(3,4-dichloro-phenyl)-ethyl]-amide] | 39
CCC(C)[C@@H](NS(C)(=O)=O)C(=O)N[C@@H](Cc1ccc(Cl)c(Cl)c1)C(=O)NCc1ccc(N)nc1 (stereo partly drawn) [Example 211, (R)-2-Methanesulfonylamino-3-methyl-pentanoic acid [(S)-1-[(6-amino-pyridin-3-ylmethyl)-carbamoyl]-2-(3,4-dichloro-phenyl)-ethyl]-amide] | 0.29
C[C@H](C(=O)N[C@@H](Cc1ccc(Cl)c(Cl)c1)C(=O)NCc1ccc(N)nc1)N(C)S(C)(=O)=O [Example 212, (R)—N-[(S)-1-[(6-Amino-pyridin-3-ylmethyl)-carbamoyl]-2-(3,4-dichloro-phenyl)-ethyl]-2-(methanesulfonyl-methyl-amino)-propionamide] | 29.8
CCC(C)[C@@H](N)C(=O)N[C@@H](C(=O)NCc1ccc(N)nc1)C(C1CCCCC1)C1CCCCC1 (stereo partly drawn) [Example 214, (R)-2-Amino-3-methyl-pentanoic acid {(R)-1-[(6-amino-pyridin-3-ylmethyl)-carbamoyl]-2,2-dicyclohexyl-ethyl}-amide] | 16.9
Nc1ccc(CNC(=O)[C@H](NC(=O)[C@@H]2CCCN2)C(C2CCCCC2)C2CCCCC2)cn1 [Example 215, (S)-Pyrrolidine-2-carboxylic acid {(R)-1-[(6-amino-pyridin-3-ylmethyl)-carbamoyl]-2,2-dicyclohexyl-ethyl}-amide] | 12.6
Nc1ccc(CNC(=O)[C@H](NC(=O)[C@@H](N)Cc2ccccc2)C(C2CCCCC2)C2CCCCC2)cn1 [Example 216, (S)-2-Amino-N-{(R)-1-[(6-amino-pyridin-3-ylmethyl)-carbamoyl]-2,2-dicyclohexyl-ethyl}-3-phenyl-propionamide] | 24.4
CC(C)(C)[C@H](N)C(=O)N[C@@H](C(=O)NCc1ccc(N)nc1)C(C1CCCCC1)C1CCCCC1 [Example 217, (S)-2-Amino-N-{(R)-1-[(6-amino-pyridin-3-ylmethyl)-carbamoyl]-2,2-dicyclohexyl-ethyl}-3,3-dimethyl-butyramide] | 29.3
CN[C@@H](C)C(=O)N[C@@H](C(=O)NCc1ccc(N)nc1)C(C1CCCCC1)C1CCCCC1 [Example 218, (S)—N-{(R)-1-[(6-Amino-pyridin-3-ylmethyl)-carbamoyl]-2,2-dicyclohexyl-ethyl}-2-methylamino-propionamide] | 35.3
CCC(C)[C@H](NC)C(=O)N[C@@H](C(=O)NCc1ccc(N)nc1)C(C1CCCCC1)C1CCCCC1 (stereo partly drawn) [Example 219, (S)-3-Methyl-2-methylamino-pentanoic acid {(R)-1-[(6-amino-pyridin-3-ylmethyl)-carbamoyl]-2,2-dicyclohexyl-ethyl}-amide] | 3.6
NCC(=O)N[C@@H](C(=O)NCc1ccc(N)nc1)C(C1CCCCC1)C1CCCCC1 [Example 220, (R)-2-(2-Amino-acetylamino)-N-(6-amino-pyridin-3-ylmethyl)-3,3-dicyclohexyl-propionamide] | 55.5

Reference: patent US20100076015A1, “Aminopyridine Derivatives” (VANTIA LIMITED, priority 2008, published 2010)
